Experimental data from PubChem BioAssay (NCI).
Several values for one entry are separate records, joined by “and”; a condition that tells them apart may be missing. Equal entries are not always repeated.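 Growth conditions: 96-well plates. Treatment: test compound, 48 hours, 5 concentrations. Analysis: linear interpolation between bracketing concentrations; unreached endpoints set to highest concentration. GI50: concentration for 50% inhibition of growth. TGI: concentration producing complete growth inhibition.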

Tests used:
Experiment in all cases: inhibition of tumour cell growth, NCI panel, 48 h
[1] = system: EKVX NSCLC
[2] = system: HOP-62 NSCLC
[3] = system: HOP-92 NSCLC
[4] = system: HS 578T breast
[5] = system: K-562 leukemia
[6] = system: MDA-MB-435
[7] = system: NCI/ADR-RES ovarian
[8] = system: OVCAR-5 ovarian
[9] = system: U251 CNS
[10] = system: HCT-116 colon

Compound | GI50 [1] | GI50 [2] | TGI [2] | GI50 [3] | TGI [3] | GI50 [4] | TGI [4] | GI50 [5] | TGI [5] | GI50 [6] | TGI [6] | GI50 [7] | TGI [7] | GI50 [8] | TGI [8] | GI50 [9] | TGI [9] | TGI [1] | GI50 [10] | TGI [10]
CN(C)CCNC(=O)c1cccn2c(=O)c3cc4ccccc4cc3nc12 | 0.353 µM | 0.0784 µM | 0.554 µM | 0.538 µM | > 100 µM | 0.153 µM | 1.76 µM | 0.208 µM | 40.8 µM | 0.181 µM | 1.19 µM | 0.101 µM | 0.468 µM | 0.217 µM | 13.7 µM | 0.114 µM | 18 µM |  |  | 
CN(C)CCCNC(=O)c1cc(NC(=O)CCNS(=O)(=O)c2ccc3c(c2)C(=O)c2ccccc2C3=O)cn1C | > 100 µM | > 100 µM | > 100 µM | 88.9 µM | > 100 µM | > 100 µM | > 100 µM | > 100 µM | > 100 µM | > 100 µM | > 100 µM | > 100 µM | > 100 µM | > 100 µM | > 100 µM |  |  | > 100 µM | > 100 µM | > 100 µM
COC(=O)[C@@H]1CSC(=S)N1C(=O)C[C@H]1CC=CC[C@H]1CC(=O)Sc1ccccc1 |  |  | 38 µM |  |  |  |  |  | 38.9 µM |  |  |  |  |  | 33.8 µM |  | 32.4 µM | 32.2 µM |  | 30.8 µM
CCCC(O)[C@@H](O)c1ccc2c(c1O)C(=O)c1c(OC)cccc1C2=O (some centres not stated) |  |  | > 100 µM |  | > 100 µM |  |  |  | > 100 µM |  |  |  |  |  | > 100 µM |  | > 100 µM | > 100 µM |  | > 100 µM
CC1(Sc2ccccc2)CN(Cc2ccccc2)C1=O (configuration not stated) |  |  | > 100 µM |  | 86 µM |  |  |  | > 100 µM |  |  |  |  |  |  |  | > 100 µM | > 100 µM |  | > 100 µM
CS(=O)(=O)CC1=Nc2nnc(CCCCCCCc3nnc4n3C(=O)C(CS(C)(=O)=O)=N4)n2C1=O |  |  | > 100 µM |  | > 100 µM |  |  |  | > 100 µM |  |  |  |  |  | > 100 µM |  | > 100 µM | > 100 µM |  | > 100 µM
COC(=O)c1[nH]c(=S)[nH]c(=O)c1-c1ccc(Cl)cc1 |  |  | > 50 µM |  | > 50 µM |  |  |  | > 50 µM |  |  |  |  |  | > 50 µM |  | > 50 µM | > 50 µM |  | > 50 µM
O=C1C/C(=C/c2ccc(/C=C3/CC(=O)N(c4cccc(Br)c4)C3=O)cc2)C(=O)N1c1cccc(Br)c1 |  |  | > 100 µM |  | > 100 µM |  |  |  | > 100 µM |  |  |  |  |  | > 100 µM |  | > 100 µM | > 100 µM |  | > 100 µM
O=C1C(Cl)=C(N/N=c2/[nH][nH]/c(=N/NC3=C(Cl)C(=O)c4ccccc4C3=O)c3ccccc23)C(=O)c2ccccc21 |  | 10.2 µM | 23.2 µM |  |  | 13.5 µM | 66.3 µM | 3.23 µM | 13.9 µM | 17.8 µM | 36.6 µM | 21.4 µM | 73.2 µM | 18.7 µM | 39.1 µM | 15.4 µM | 29.2 µM |  | 14.3 µM | 32.3 µM
O=C(CCl)c1ccc([N+](=O)[O-])o1 | 10.7 µM | 7.58 µM | 17.6 µM |  |  | 2.72 µM | 8.66 µM | 1.18 µM | > 19.8 µM | 1.89 µM | 4.22 µM | 3.51 µM | 23.8 µM | 2.48 µM | 5.3 µM | 1.95 µM | 4.37 µM | 32.6 µM | 0.519 µM | 2.4 µM
C=C1C(=O)O[C@H]2C[C@@H](C)[C@@H]3CC(=O)OC[C@@]3(C)CC12 (some centres not stated) |  |  | > 100 µM |  | 34.8 µM |  |  |  | 68.5 µM |  |  |  |  |  |  |  | > 100 µM | > 100 µM |  | > 100 µM
Cc1ccc2c(c1)C1(C)OC(CC(N)C1O)O2 (configuration not stated) |  |  | > 100 µM |  |  |  |  |  | > 100 µM |  |  |  |  |  |  |  | > 100 µM | > 100 µM |  | > 100 µM
COc1cccc(C2=C(c3cn(C)c4ccccc34)C(=O)NC2=O)c1 |  | > 22.8 µM | > 25 µM | > 25 µM | > 25 µM | 4.8 µM | > 25 µM | 7.93 µM | > 25 µM | 6.38 µM | > 25 µM | 8.43 µM | > 25 µM | > 25 µM | > 25 µM | 10.9 µM | > 25 µM |  | 7.26 µM | > 25 µM
COc1ccc(Cn2nc(-c3cc(OC)c(OC)c(OC)c3)c3c2CCc2cnoc2-3)cc1OC |  | 6.35 µM | 82.7 µM |  |  | 2.22 µM | 15.2 µM |  |  |  |  | 3.02 µM | 21.5 µM | 26.6 µM | > 100 µM | 4.97 µM | > 100 µM |  | 3.63 µM | 44 µM
CC(=O)/C(=C\c1ccco1)C(=O)Nc1ccccc1 |  |  | > 100 µM |  | > 100 µM |  |  |  | > 100 µM |  |  |  |  |  |  |  | > 100 µM | > 100 µM |  | > 100 µM
C=C1C(=O)OC2CC3(C)C=CC(=O)C(=C)C3CC12 (configuration not stated) |  |  | 19.2 µM |  | 3.49 µM |  |  |  | > 100 µM |  |  |  |  |  | 8.05 µM |  | 13.5 µM | 6.85 µM |  | 2.54 µM
CC1=CC(=O)c2c(O)cccc2C1=O |  |  | 17.6 µM |  | 1.43 µM |  |  |  | 2.52 µM |  | 3.26 µM |  | 3.16 µM |  | 3.78 µM |  | 20.4 µM | 3.08 µM |  | 3.11 µM
COC12C=CC(CC1)c1c(O)ccc(O)c12 (configuration not stated) |  |  | > 100 µM |  |  |  |  |  | 61.8 µM |  |  |  |  |  | > 100 µM |  | > 100 µM | > 100 µM |  | > 100 µM
CN(C)c1ccc2c(NCCCCCCNc3ccnc4cc(N(C)C)ccc34)ccnc2c1 |  |  | 67.9 µM |  |  |  |  |  | > 100 µM |  |  |  |  |  | 79.6 µM |  | 24.3 µM | > 100 µM |  | > 100 µM
CC[C@](C)(O)C(=O)O[C@H]1C(=O)O[C@@H]2C[C@H]3C(C)=CC(=O)[C@@H](O)[C@]3(C)[C@H]3[C@@]4(O)OC[C@]32[C@@H]1[C@@H](C)[C@H]4O | 1.61 µM | 0.165 µM | 1.19 µM and 0.368 µM |  |  |  | 4.44 µM | 0.0841 µM |  |  | > 24.3 µM | 0.036 µM |  | 0.762 µM | 8.16 µM and 6.86 µM |  | 0.41 µM and 0.121 µM |  | 0.22 µM | 0.957 µM and 0.376 µM
CCOC(=O)c1c2c(n(CC(C)C)c1C)-c1nc[nH]c1C(=O)C2=O | 15 µM | 19.1 µM | 34.2 µM | 3.82 µM | 16.2 µM | 38.9 µM | > 100 µM | 6.74 µM | 20.1 µM | 18.2 µM | 32.6 µM |  |  |  |  | 14.2 µM | 27.2 µM | 28.2 µM | 5.92 µM | 18.8 µM
